Assay results reported in PubChem BioAssay (NCI).
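Five concentrations, 48 hours, 96-well plates. At the TGI there is no net growth.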

Key:
Assay in all cases: DTP human tumour cell line panel, 48 h
[1] = tested on: SK-MEL-28 melanoma
[2] = tested on: HCT-15 colon
[3] = tested on: OVCAR-8 ovarian
[4] = tested on: UO-31 renal
[5] = tested on: CAKI-1 renal
[6] = tested on: OVCAR-3 ovarian
[7] = tested on: PC-3 prostate
[8] = tested on: ACHN renal
[9] = tested on: OVCAR-4 ovarian
[10] = tested on: A498 renal
[11] = tested on: MDA-MB-231 breast
[12] = tested on: NCI-H23 lung
[13] = tested on: SF-539 CNS
[14] = tested on: TK-10 renal
[15] = tested on: KM12 colon
[16] = tested on: HOP-92 NSCLC
[17] = tested on: MDA-MB-435
[18] = tested on: LOX IMVI melanoma
[19] = tested on: RPMI-8226 leukemia
[20] = tested on: UACC-257 melanoma
[21] = tested on: IGROV1 ovarian
[22] = tested on: HS 578T breast
[23] = tested on: MCF7 breast
[24] = tested on: SK-OV-3 ovarian
[25] = tested on: A549 NSCLC
[26] = tested on: NCI-H226 lung
[27] = tested on: SR leukemia
[28] = tested on: HOP-62 NSCLC
[29] = tested on: DU-145 prostate
[30] = tested on: SN12C renal
[31] = tested on: SK-MEL-5 melanoma
[32] = tested on: OVCAR-5 ovarian
[33] = tested on: SW-620 colon
[34] = tested on: HCT-116 colon
[35] = tested on: SF-295 CNS
[36] = tested on: T-47D breast
[37] = tested on: MDA-N
[38] = tested on: COLO 205 colon
[39] = tested on: SK-MEL-2 melanoma
[40] = tested on: K-562 leukemia
[41] = tested on: NCI/ADR-RES ovarian
[42] = tested on: M14 melanoma
[43] = tested on: MALME-3M melanoma
[44] = tested on: HCC-2998 colon
[45] = tested on: RXF 393 renal
[46] = tested on: UACC-62 melanoma
[47] = tested on: EKVX NSCLC
[48] = tested on: BT-549 breast
[49] = tested on: HT29 colon
[50] = tested on: SNB-19 CNS
[51] = tested on: U251 CNS
[52] = tested on: HL-60(TB) leukemia
[53] = tested on: NCI-H522 lung
[54] = tested on: CCRF-CEM leukemia
[55] = tested on: SNB-75 CNS
[56] = tested on: 786-0 renal
[57] = tested on: SF-268 CNS
[58] = tested on: MOLT-4 leukemia
[59] = tested on: NCI-H460 lung

Measured: TGI

CC1OC2=N[C@@H]1C(=O)N[C@@H](Cc1ccccc1)C1=N[C@H](C(=O)N[C@@H](Cc3ccccc3)C3=N[C@H](C(=O)N[C@H]2Cc2ccccc2)C(C)O3)C(C)O1 (some centres undefined)
68.7 µM: [40]
80.1 µM: [46]
39.4 µM: [18]
81.7 µM: [17]
34.1 µM: [19]
57.8 µM: [31]
62.6 µM: [27]
52.5 µM: [49]
91.9 µM: [10]
52.3 µM: [39]
88.6 µM: [5]
73.2 µM: [7]
56.4 µM: [42]
69.2 µM: [1]
57.6 µM: [43]
68.5 µM: [32]
72 µM: [11]
34.4 µM: [38]
65.8 µM: [22]
59.7 µM: [16]
69.5 µM: [14]
75.8 µM: [6]
71.2 µM: [20]
47.4 µM: [13]
93.9 µM: [26]
not listed: [50] | [51] | [52] | [53] | [54] | [55] | [56] | [57] | [58] | [59]
> 100 µM: all other assays above

COc1cc2c(cc1OC)C1c3ccccc3CCCN1CC2 (centres undefined)
not listed: [45] | [59]
> 100 µM: all other assays above

COc1ccccc1NCc1nnc(CCCCCCCCc2nnc(CNc3ccccc3OC)o2)o1
not listed: [1] | [13] | [21] | [26] | [33] | [52]
> 100 µM: all other assays above
